# Tests used:
# Assay in all cases: relative viability (nuclei count vs DMSO), 5 days (fraction); higher = more cells survive
# BAY61-3606 + Olaparib = compound: COC1=C(C=C(C=C1)C2=CC3=NC=CN3C(=N2)NC4=C(C=CC=N4)C(=O)N)OC [BAY61-3606] + O=C(c1cc(Cc2n[nH]c(=O)c3ccccc23)ccc1F)N1CCN(C(=O)C2CC2)CC1 [Olaparib] (partner 8 µM)
# Summary of the method: (§1)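 Lung cancer cell lines, seeded in 1536-well plates, were treated the following day by pin tool with a single drug or with five library-drug doses (not always all listed) in √10 steps on top of a fixed anchor-drug dose. Cells were fixed and nuclei stained in one step after 5 days, and nuclei were counted. Relative viability is the nuclei count for treated wells divided by that for vehicle wells, reported as medians of duplicate plates.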
# BAY61-3606 + Pemetrexed = compound: COC1=C(C=C(C=C1)C2=CC3=NC=CN3C(=N2)NC4=C(C=CC=N4)C(=O)N)OC [BAY61-3606] + Nc1nc2[nH]cc(CCc3ccc(C(=O)N[C@@H](CCC(=O)O)C(=O)O)cc3)c2c(=O)[nH]1 [Pemetrexed] (partner 0.2 µM)
# Summary of the method: as §1
# Doxorubicin + Vorinostat = compound: COc1cccc2c1C(=O)c1c(O)c3c(c(O)c1C2=O)C[C@@](O)(C(=O)CO)C[C@@H]3O[C@H]1C[C@H](N)[C@H](O)[C@H](C)O1 [Doxorubicin] + O=C(CCCCCCC(=O)Nc1ccccc1)NO [Vorinostat] (partner 1 µM)
# Summary of the method: as §1
# Doxorubicin + Pictilisib = compound: COc1cccc2c1C(=O)c1c(O)c3c(c(O)c1C2=O)C[C@@](O)(C(=O)CO)C[C@@H]3O[C@H]1C[C@H](N)[C@H](O)[C@H](C)O1 [Doxorubicin] + CS(=O)(=O)N1CCN(Cc2cc3nc(-c4cccc5[nH]ncc45)nc(N4CCOCC4)c3s2)CC1 [Pictilisib] (partner 1 µM)
# Summary of the method: as §1
cell line,measurement,setting,value
HOP-62,relative viability,BAY61-3606 + Olaparib; first compound 0.02 µM,0.476
same,relative viability,BAY61-3606 + Olaparib; first compound 0.06325 µM,0.569
same,relative viability,BAY61-3606 + Olaparib; first compound 0.2 µM,0.279
same,relative viability,BAY61-3606 + Olaparib; first compound 0.6325 µM,0.505
same,relative viability,BAY61-3606 + Olaparib; first compound 2 µM,0.376
same,relative viability,BAY61-3606 + Pemetrexed; first compound 0.06325 µM,0.354
same,relative viability,BAY61-3606 + Pemetrexed; first compound 0.2 µM,0.323
same,relative viability,BAY61-3606 + Pemetrexed; first compound 0.6325 µM,0.332
same,relative viability,BAY61-3606 + Pemetrexed; first compound 2 µM,0.249
same,relative viability,Doxorubicin + Vorinostat; first compound 0.001 µM,0.515
same,relative viability,Doxorubicin + Vorinostat; first compound 0.003162 µM,0.605
same,relative viability,Doxorubicin + Vorinostat; first compound 0.01 µM,0.599
same,relative viability,Doxorubicin + Vorinostat; first compound 0.03162 µM,0.538
same,relative viability,Doxorubicin + Vorinostat; first compound 0.1 µM,0.572
same,relative viability,Doxorubicin + Pictilisib; first compound 0.001 µM,0.315
same,relative viability,Doxorubicin + Pictilisib; first compound 0.003162 µM,1.03
same,relative viability,Doxorubicin + Pictilisib; first compound 0.01 µM,0.782
same,relative viability,Doxorubicin + Pictilisib; first compound 0.03162 µM,0.553
same,relative viability,Doxorubicin + Pictilisib; first compound 0.1 µM,0.717
IA-LM,relative viability,BAY61-3606 + Olaparib; first compound 0.02 µM,1.02
same,relative viability,BAY61-3606 + Olaparib; first compound 0.06325 µM,0.864
same,relative viability,BAY61-3606 + Olaparib; first compound 0.2 µM,0.816
same,relative viability,BAY61-3606 + Olaparib; first compound 0.6325 µM,0.85
same,relative viability,BAY61-3606 + Olaparib; first compound 2 µM,0.68
same,relative viability,Doxorubicin + Vorinostat; first compound 0.001 µM,0.837
same,relative viability,Doxorubicin + Vorinostat; first compound 0.003162 µM,1.21
same,relative viability,Doxorubicin + Vorinostat; first compound 0.01 µM,0.937
same,relative viability,Doxorubicin + Vorinostat; first compound 0.03162 µM,0.946
same,relative viability,Doxorubicin + Vorinostat; first compound 0.1 µM,0.975
same,relative viability,Doxorubicin + Pictilisib; first compound 0.001 µM,0.287
same,relative viability,Doxorubicin + Pictilisib; first compound 0.003162 µM,0.341
same,relative viability,Doxorubicin + Pictilisib; first compound 0.01 µM,0.254
same,relative viability,Doxorubicin + Pictilisib; first compound 0.03162 µM,0.0936
same,relative viability,Doxorubicin + Pictilisib; first compound 0.1 µM,0.0491
LC-2-ad,relative viability,BAY61-3606 + Olaparib; first compound 0.02 µM,0.703
same,relative viability,BAY61-3606 + Olaparib; first compound 0.06325 µM,0.701
same,relative viability,BAY61-3606 + Olaparib; first compound 0.2 µM,0.723
same,relative viability,BAY61-3606 + Olaparib; first compound 0.6325 µM,0.717
same,relative viability,BAY61-3606 + Olaparib; first compound 2 µM,0.578
same,relative viability,BAY61-3606 + Pemetrexed; first compound 0.02 µM,0.289
same,relative viability,BAY61-3606 + Pemetrexed; first compound 0.06325 µM,0.267
same,relative viability,BAY61-3606 + Pemetrexed; first compound 0.2 µM,0.261
same,relative viability,BAY61-3606 + Pemetrexed; first compound 0.6325 µM,0.289
same,relative viability,BAY61-3606 + Pemetrexed; first compound 2 µM,0.267
same,relative viability,Doxorubicin + Vorinostat; first compound 0.001 µM,0.699
same,relative viability,Doxorubicin + Vorinostat; first compound 0.003162 µM,0.714
same,relative viability,Doxorubicin + Vorinostat; first compound 0.01 µM,0.624
same,relative viability,Doxorubicin + Vorinostat; first compound 0.03162 µM,0.637
same,relative viability,Doxorubicin + Vorinostat; first compound 0.1 µM,0.664
same,relative viability,Doxorubicin + Pictilisib; first compound 0.001 µM,0.496
same,relative viability,Doxorubicin + Pictilisib; first compound 0.003162 µM,0.406
same,relative viability,Doxorubicin + Pictilisib; first compound 0.01 µM,0.417
same,relative viability,Doxorubicin + Pictilisib; first compound 0.03162 µM,0.359
same,relative viability,Doxorubicin + Pictilisib; first compound 0.1 µM,0.227
LCLC-97TM1,relative viability,BAY61-3606 + Olaparib; first compound 0.02 µM,0.498
same,relative viability,BAY61-3606 + Olaparib; first compound 0.06325 µM,0.365
same,relative viability,BAY61-3606 + Olaparib; first compound 0.2 µM,0.462
same,relative viability,BAY61-3606 + Olaparib; first compound 0.6325 µM,0.336
same,relative viability,BAY61-3606 + Olaparib; first compound 2 µM,0.389
same,relative viability,BAY61-3606 + Pemetrexed; first compound 0.02 µM,0.188
same,relative viability,BAY61-3606 + Pemetrexed; first compound 0.06325 µM,0.165
same,relative viability,BAY61-3606 + Pemetrexed; first compound 0.2 µM,0.195
same,relative viability,BAY61-3606 + Pemetrexed; first compound 0.6325 µM,0.145
same,relative viability,BAY61-3606 + Pemetrexed; first compound 2 µM,0.166
same,relative viability,Doxorubicin + Vorinostat; first compound 0.001 µM,0.785
same,relative viability,Doxorubicin + Vorinostat; first compound 0.003162 µM,0.909
same,relative viability,Doxorubicin + Vorinostat; first compound 0.01 µM,0.73
same,relative viability,Doxorubicin + Vorinostat; first compound 0.03162 µM,0.707
same,relative viability,Doxorubicin + Vorinostat; first compound 0.1 µM,0.703
same,relative viability,Doxorubicin + Pictilisib; first compound 0.001 µM,0.145
same,relative viability,Doxorubicin + Pictilisib; first compound 0.003162 µM,0.24
same,relative viability,Doxorubicin + Pictilisib; first compound 0.01 µM,0.225
same,relative viability,Doxorubicin + Pictilisib; first compound 0.03162 µM,0.158
same,relative viability,Doxorubicin + Pictilisib; first compound 0.1 µM,0.187

# — the supplement of paper PMC10307832
